Columns and labels:
[1] = fT>MIC in Mycobacterium tuberculosis infected mouse; assay type: functional
[2] = T>MIC in Mycobacterium tuberculosis infected mouse; assay type: functional
[3] = fCmax/MIC in Mycobacterium tuberculosis infected mouse; assay type: functional
[4] = Cmax/MIC in Mycobacterium tuberculosis infected mouse; assay type: functional
[5] = fAUC/MIC in Mycobacterium tuberculosis infected mouse; assay type: functional
[6] = AUC/MIC in Mycobacterium tuberculosis infected mouse; assay type: functional, Plasma

Row | SMILES | fT>MIC [1] | %T>MIC [2] | fCmax/MIC [3] | Ratio [4] | fAUC/MIC [5] | RatioAUC/MIC [6]
1 | COc1nc2ccc(Br)cc2cc1[C@@H](c1ccccc1)[C@@](O)(CCN(C)C)c1cccc2ccccc12 [BEDAQUILINE] | 0% | 80% | 0.1 | 10 | 1 | 100
2 | CC(C)/N=c1\cc2n(-c3ccc(Cl)cc3)c3ccccc3nc-2cc1Nc1ccc(Cl)cc1 [CLOFAZIMINE] | 0% | 0% | 0.02 | 1 | <1 | 20
3 | CC[C@@H](CO)NCCN[C@@H](CC)CO [ETHAMBUTOL] | 25% | 35% | 8 | 11 | 25 | 33
4 | NNC(=O)c1ccncc1 [ISONIAZID] | 60% | 80% | 400 | 660 | 800 | 1300
5 | OC(c1cc(C(F)(F)F)nc2c(C(F)(F)F)cccc12)C1CCCCN1 (centres undefined) [MEFLOQUINE] | 0% | 0% | 0.1 | 0.5 | 1.6 | 8
6 | COc1c(N2C[C@@H]3CCCN[C@@H]3C2)c(F)cc2c(=O)c(C(=O)O)cn(C3CC3)c12 [MOXIFLOXACIN] | 80% | 100% | 10 | 17 | 53 | 88
7 | O=[N+]([O-])c1cn2c(n1)OC[C@@H](OCc1ccc(OC(F)(F)F)cc1)C2 [PRETOMANID] | 21% | 58% | 2 | 20 | 16 | 166
8 | NC(=O)c1cnccn1 [PYRAZINAMIDE] | 19% | 25% | 15 | 25 | 21 | 35
9 | CO[C@H]1/C=C/O[C@@]2(C)Oc3c(C)c(O)c4c(O)c(c(/C=N/N5CCN(C)CC5)c(O)c4c3C2=O)NC(=O)/C(C)=C\C=C\[C@H](C)[C@H](O)[C@@H](C)[C@@H](O)[C@@H](C)[C@H](OC(C)=O)[C@@H]1C [RIFAMPIN] | 100% | 100% | 20 | 100 | 300 | 1500

— ChEMBL document CHEMBL2412982, “A medicinal chemists' guide to the unique difficulties of lead optimization for tuberculosis” (2013)
